Laboratory results taken from publication PMC8163394 (2020).

Tests used:
[1] = test system: poly(dA-dT) (DNA, polymer) AT; test: emission titration (enhancement), TRIR; conditions: 10 mM sodium phosphate, [Ru] 8 μM
[2] = test system: d(CGCAAATTTGCG)2 (DNA, duplex) CGCAAATTTGCG; test: emission titration (complex, decrease then increase), TRIR; conditions: 50 mM potassium phosphate; pH 7; [Ru] 10 μM
[3] = test system: d(GCGCGCGCGC)2 (DNA, duplex) GCGCGCGCGC; test: TRIR and transient absorption; conditions: 50 mM potassium phosphate; pH 7, D2O
[4] = test system: d(CGCGAATTCGCG)2 (DNA, duplex) CGCGAATTCGCG; test: emission titration (quenching), TRIR; conditions: 50 mM potassium phosphate; pH 7; [Ru] 10 μM
[5] = test system: poly(dG-dC) (DNA, polymer) GC; test: emission titration, McGhee-von Hippel fit; conditions: 10 mM phosphate buffer (sodium in Fig. 2, potassium in Fig. S1); pH 7, air-saturated; [Ru] 20 μM; per base

SMILES | binding ([1]; reaches saturation) | binding [2] | binding [3] | binding [4] | Kb [5] | binding ([1]; saturation not reached)
[Ru+2].c1ccc2nc3c4cccnc4c4ncccc4c3nc2c1.c1cnc2c(ccc3nccnc32)n1.c1cnc2c(ccc3nccnc32)n1 [Δ-1] | yes | yes | yes | yes | 3.6 ± 0.2 × 10^6 M^-1 | –
[Ru+2].c1ccc2nc3c4cccnc4c4ncccc4c3nc2c1.c1cnc2c(ccc3nccnc32)n1.c1cnc2c(ccc3nccnc32)n1 [Λ-1] | – | yes | yes | yes | 1.2 ± 0.1 × 10^6 M^-1 | yes
